Values quoted from earlier work as cited in US8735360B2 (priority 2009, dated 2014).
Positions of bridges follow the written chain, without caps; N, C: chain ends. Residues, ends and D or L forms follow the SMILES beside them.

Details: oral administration at therapeutic dose levels; cited from earlier work

## C[C@@H]1NC(=O)[C@@H]2CCCN2C(=O)[C@H](CC(N)=O)NC(=O)[C@@H]2CSSC[C@H](N)C(=O)N[C@H]3CSSC[C@H](NC1=O)C(=O)N[C@@H]([C@@H](C)O)C(=O)NCC(=O)N[C@H](C(=O)N[C@@H](Cc1ccc(O)cc1)C(=O)O)CSSC[C@H](NC(=O)[C@H](Cc1ccc(O)cc1)NC(=O)[C@H](CCC(=O)O)NC3=O)C(=O)N2 [linaclotide, Linaclotide] (H-CCEYCCNPACTGCY-OH; disulfide 1-6, 2-10, 5-13)
  Levels seen systemically after oral administration: no detectable levels
